According to patent US20190367558A1, “ANTIBODY/DRUG CONJUGATES AND METHODS OF USE” (ESPERANCE PHARMACEUTICALS, INC., priority 2012, published 2019):

Assays:
Type in all cases: cell-based, human
[1] = test system: U937 (CD20 negative leukemia cell line); assay: Cell viability, Cell Titer Glo luminescent assay (Examples 12, 16, 19, 20, 22); settings: CHO expressed IgG2 ADCs, Example 22
Protocol: (§1) Naked antibody anti-CD20-IgG1-Phor18 were chemically conjugated (MS4A and AT80), Mw app.158,000 g/mol at a concentrations of 0.34 mg/ml (MS4A-Phor18) and 0.76 mg/ml (AT-80-Phor18). Cell lines were obtained at the American Type Cell Collection (Mannassas, Va.). Human Non-Hodgkin's lymphoma cells Daudi (CD20 positive, passage number p2), Raji (CD20 positive p 2) and human leukemia cell line U937 (CD20 negative, p 10) were seeded at a density of 3,000 cells per well in opaque plates in heat inactivated full medium. After 24 hours cells were replenished with fresh media (75 μl) and incubated with 25 μl of a 4× serial dilution of MS4A1-Phor18 and AT80-Phor18 of 0.001, 0.01, 0.1, 1, 10, 100 and 500 nM (N=6). Cells incubated for 2-5 hours were assayed for membrane integrity using a luminometric assay kit (Promega, Madison, Wis., Cytotox Glo G9292 lot #301329). Cell viability was determined was determined after 24, and 48 hours using a luminescent assay kit (Promega, Madison, Wis., Cell Titer Glo, G 7572, lot 30068102).
(§2) The concentration of each naked antibody fragment and ADC was determined according to Bradford. Naked antibody scFv Mw 27,088 g/mol at a concentration of 0.3 mg/ml, minibody Mw 78,988 g/mol, 0.231 mg/ml; Phor 18 conjugated antibodies were scFv-Phor18 (Mw 29,349 g/mol, 0.9 mg/ml) and minibody-Phor18 (Mw 93,515, 0.48 mg/ml). Cell lines were obtained at the American Type Cell Collection (Mannassas, Va.). Human Non-Hodgkin's lymphoma cells Daudi (CD20 positive, passage number p8) and human leukemia cell line U937 (CD20 negative, p 16) were seeded at a density of 2,000 cells per well in opaque plates in heat inactivated full medium. After 24 hours cells were replenished with fresh media (75 μl) and incubated with 25 μl of a 4× serial dilution of scFv-Phor18 and minibody-Phor18 ADC and naked antibody fragment (scFv and minibody) prepared in cell culture media were added at concentrations of 0.0001, 0.001, 0.01, 0.1, 1, 10, 100, 200, and 500 nM (N=6). Cells incubated for 4 hours were assayed for membrane integrity using a luminometric assay kit (Promega, Madison, Wis., Cytotox Glo G9292 lot #301329). Cell viability was determined was determined after 24, 48 and 72 hours using a luminescent assay kit (Promega, Madison, Wis., Cell Titer Glo, G 7572, lot 30062102).
(§3) The concentration of each naked antibody fragment and ADC was determined spectrophotometrically (OD280). Naked antibody scFv-Fc Mw 52,562 g/mol at a concentration of 1.1 mg/ml, Phor 18 conjugated antibodies were Phor18-VL-scFvFc (Mw 54,685 g/mol, 1.0 mg/ml), scFv-Fc-CH3-Phor18 (Mw 54,685 g/mol, 0.8 mg/ml). Human Non-Hodgkin's lymphoma cells Daudi (CD20 positive, passage number p7) and human leukemia cell line U937 (CD20 negative, p 6) were seeded at a density of 2,000 cells per well in opaque plates in heat inactivated full medium using cell dissociation buffer. After 24 hours cells were replenished with fresh media (75 μl) and incubated and incubated with 25 μl of a 4× serial dilution of each ADC and naked antibody prepared in cell culture media were added at concentrations of 0.01, 0.1, 1, 10, 100, 200 and 500 nM for scFvFc, Phor18-VL-scFvFc and scFv-Fc-CH3-Phor18.
(§4) Cells incubated for 4 hours were assayed for membrane integrity using a luminometric assay kit (Promega, Madison, Wis., Cytotox Glo G9292 lot #26229601). Cell viability was determined was determined after 24 hours using a luminescent assay kit (Promega, Madison, Wis., Cell Titer Glo, G 7572, lot 30731602). Controls for 100% cell viability (culture media) and 100% cell death (0.1% Triton X 100) incubated under the same conditions.
Human Non-Hodgkin's lymphoma cells Daudi (CD20 positive, passage number p3) and human leukemia cell line U937 (CD20 negative, p 12) were seeded at a density of 2,000 cells per well in opaque plates in heat inactivated full medium using cell dissociation buffer. […]

[2] = test system: Daudi (CD20 positive Non-Hodgkin's lymphoma cells); assay: as above; settings: CHO expressed IgG2 ADCs, Example 22
Protocol: as §1, §2
(§5) Controls for 100% cell viability (culture media) and 100% cell death (0.1% Triton X 100) incubated under the same conditions.
(§6) Data were processed and analyzed to obtain IC50 values using Graph Pad Prizm version 5.00 for Windows, GraphPad Software, San Diego Calif. USA, www-graphpad-com (Graph Pad Prizm, Inc). Statistical analysis for significance was determined by a two-tailed Student's T-test. Each test was conducted using 2 plates with 2-3 wells each to achieve an N of 4-6 data points per time point.
as §3
as §4, with “Controls for 100% cell viability (culture media) and 100% cell death (0.1% Triton X 100) incubated under the same conditions.” left out

[3] = test system: U937 (CD20 negative leukemia cell line); assay: Membrane integrity, Cytotox Glo luminometric assay (Examples 19, 20, 22); settings: CHO expressed IgG2 ADCs, Example 22
Protocol: as §3, with “After 24 hours cells were replenished with fresh media (75 μl) and incubated and incubated with 25 μl of a 4× serial dilution of each ADC and naked antibody prepared in cell culture media were added at concentrations of 0.01, 0.1, 1, 10, 100, 200 and 500 nM for scFvFc, Phor18-VL-scFvFc and scFv-Fc-CH3-Phor18.” left out
as §4, with “Controls for 100% cell viability (culture media) and 100% cell death (0.1% Triton X 100) incubated under the same conditions.” left out
(§7) Cells incubated for 4 hours were assayed for membrane integrity using a luminometric assay kit (Promega, Madison, Wis., Cytotox Glo G9292 lot #26229601). Cell viability was determined was determined after 24, and 48 hours using a luminescent assay kit (Promega, Madison, Wis., Cell Titer Glo, G 7572, lot 31386501). […]

[4] = test system: Daudi (CD20 positive Non-Hodgkin's lymphoma cells); assay: Membrane integrity, Cytotox Glo luminometric assay (Examples 12, 16, 19, 20, 22); settings: 4 h, CHO expressed IgG2 ADCs, Example 22
Protocol: as §1, §2, §5, §6, §3
as §7, with “24” for “24, and 48”, “30731602).” for “31386501).”

IgG2: naked anti-CD20 IgG2 with Rituxan CDRs, CHO cells [reference compound]
Not toxic: IC50, U937 24 h ([1]; U937, 24 h) | IC50, U937 48 h ([1]; U937, 48 h) | IC50, Daudi 24 h ([2]; 24 h) | IC50, Daudi 48 h ([2]; 48 h) | IC50, U937 4 h (Membrane integrity) [3] | IC50, Daudi 4 h (Membrane integrity) [4]
